Laboratory results from patent US20160237012A1, “ANTICANCER AGENTS AND PROCESS OF MAKING THEREOF” (Golden Biotechnology Corporation, priority 2015, published 2016).

Assays:
Hep3B = assay: MTT cell viability assay, Hep3B; type: cell-based; settings: 48 hours, human hepatoma Hep3B, average of at least six independent experiments
Description: (§1) Human hepatoma (HepG2 and Hep 3B) and human breast cancer (MCF-7) cell lines were obtained from American Type Culture Collection (Rockville, Md., USA). HepG2 and Hep 3B cells were cultured in MEM alpha medium (Invitrogen/Gibco BRL, Grand Island, N.Y., USA) and MCF-7 cells were cultured in DMEM medium (Invitrogen/Gibco BRL). All cells were cultured at 37° C. in 5% CO2 in culture media supplemented with 10% fetal bovine serum (Invitrogen/Gibco BRL) and 100 U/ml streptomycin and penicillin (Invitrogen/Gibco BRL). For treatment, cells were seeded in six-well plates at 6.25×10^5 cells/well. On the following day, the media were changed to serum-free and the cells were serum-starved for 24 h. […]
(§2) The MTT (3-(4, 5-dimethylthiazol-2-yl)-2,5-diphenyl tetrazolium bromide) cell viability assay is a colorimetric assay system, which measures the reduction of a tetrazolium component (MTT) into an insoluble blue/purple colored formazan product by succinate tetrazolium reductase in mitochondria of viable cells. The absorbance of the complex is read spectrophotometrically and is directly proportional to the number of live or viable cells. […]
(§3) To each of the 96 well plates seeded at a density of 5,000 cells per well, a known concentration of test compounds were added individually. […] The IC50 value was determined by a nonlinear curve fitting program using the GraphPad prism software v 4.01.

HepG2 = assay: MTT cell viability assay, HepG2; type: cell-based; settings: 48 hours, human hepatoma HepG2, average of at least six independent experiments
Description: as §1, §2, §3

MCF-7 = assay: MTT cell viability assay, MCF-7; type: cell-based; settings: MCF7, 48 hours, human breast cancer MCF-7, average of at least six independent experiments
Description: as §1, §2, §3

Hep 3B = settings: based on the prior published result; read-out: IC50 against Hep 3B; cited from earlier work

| Compound | IC50 (Hep3B) [nM] | IC50 (HepG2) [nM] | IC50 (MCF-7) [nM] | IC50 (Hep 3B) [nM] |
| --- | --- | --- | --- | --- |
| CC(C)=CCC/C(C)=C/CC/C(C)=C/CC1C(O)C=CC(=O)C1C (stereo not shown) [Compound 3] | 4.3 | 156 | 108 |  |
| CC(C)=CCC/C(C)=C/CC/C(C)=C/Cc1c(O)ccc(O)c1C [Compound 1] | 325 | 948 | 519 |  |
| COC1=C(OC)C(O)C(CC=C(C)CCC=C(C)CCC=C(C)C)C(C)C1=O (stereo not shown) [4-hydroxy-2,3-dimethoxy-6-methyl-5-(3,7,11-trimethyldodeca-2,6,10-trienyl)cyclohex-2-enone] |  |  |  | > 30000 |
